Measured values from paper PMC7251097, “Aspartate/asparagine-β-hydroxylase: a high-throughput mass spectrometric assay for discovery of small molecule inhibitors” (Scientific Reports, 2020).
Where a name gives a salt, the structure may show the parent alone. Read-outs that look alike come from different tables or passages of the source.

Target: T1, His6-AspH315–758 (human aspartate/asparagine-β-hydroxylase, AspH) (Homo sapiens, UniProt Q12797)
T1 construct: N-Terminally His6-tagged human AspH315–758 (His6-AspH315–758) was produced in E. coli BL21 (DE3) cells; made in house; host or cells: E. coli BL21 (DE3), pET-28a(+) vector
T1 sequence (Q12797 315-758): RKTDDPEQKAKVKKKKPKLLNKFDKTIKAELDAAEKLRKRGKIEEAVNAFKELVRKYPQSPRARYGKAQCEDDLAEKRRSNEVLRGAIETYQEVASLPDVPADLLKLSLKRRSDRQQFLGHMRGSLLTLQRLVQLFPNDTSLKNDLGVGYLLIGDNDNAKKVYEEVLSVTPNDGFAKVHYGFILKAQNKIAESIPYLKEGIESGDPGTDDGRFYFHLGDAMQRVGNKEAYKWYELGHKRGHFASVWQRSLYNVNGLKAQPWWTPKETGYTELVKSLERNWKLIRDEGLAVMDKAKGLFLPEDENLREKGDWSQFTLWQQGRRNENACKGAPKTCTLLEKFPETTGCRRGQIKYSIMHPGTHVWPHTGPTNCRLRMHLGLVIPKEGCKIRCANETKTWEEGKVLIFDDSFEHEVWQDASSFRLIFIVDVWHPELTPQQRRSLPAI
Test: SPE-MS AspH inhibition assay (LOPAC screen at fixed 20 μM and IC50 dose-response), hydroxylation of cyclic peptide hFX-CP101–119
Type: biochemical
Conditions: for IC50: read-out: IC50

[1] = LOPAC compound at fixed 20 uM, plate 1, normalised to DMSO and 2,4-PDCA controls
[2] = LOPAC compound at fixed 20 uM, substrate conversion, plate 1
[3] = LOPAC compound at 20uM, plate 2, conversion of substrate peptide
[4] = LOPAC compound at 20uM, plate 2, normalised to DMSO and 2,4-PDCA controls, read-out: Plate 2 (% inhibition)
[5] = LOPAC Plate 4, compound at 20 uM, substrate conversion
[6] = LOPAC Plate 4, compound at 20 uM, read-out: % inhibition
[7] = read-out: Plate 2 (% inhibition)
[8] = LOPAC compound at 20uM, plate 3, conversion of substrate peptide
[9] = LOPAC compound at 20uM, plate 2, normalised to DMSO and 2,4-PDCA controls
[10] = plate 5 (Pfitzer), test compounds at fixed 20 μM
[11] = plate 5 (Pfitzer), test compounds at fixed 20 μM, mean conversion DMSO 32.88

## Cn1cc(C(=O)OCC2CCN(CCNS(C)(=O)=O)CC2)c2ccccc21 [GR 113808]
[1]
  Plate 1 (% inhibition): -5.71%
[2]
  Plate 1 (% conversion): 37.79%

## O=C(O)CCN(O)C(=O)CCCCCCCCC1CC1 [TC-E 5002, reference compound]
50 nM His6-AspH315–758, 1.0 μM hFX-CP101–119, 3 μM 2OG, 2 μM Fe(II), 50 mM HEPES pH 7.5, 20 °C, mean ± SD, n = 2 (2,4-PDCA n = 10)
  IC50: 6.66 ± 0.69 µM

## O=P(O)(O)C(Cl)(Cl)P(=O)(O)O [Clodronic acid, reference compound]
AspH activity, fixed compound concentration 20 μM, initial LOPAC screen, 0.5%v/v DMSO, read-out: Inhibition at 20 µM [%]
  inhibition at 20 µM: 100%
[3]
  Plate 2 (% conversion): 2.30%
[4]
  inhibition at 20 µM: 101%

## NCC(CP(=O)(O)O)c1ccc(Cl)cc1 (stereo not shown) [Phaclofen]
  % conversion: 34.58%
20 µM
  % inhibition: 5.54%

## CC(C)C(=O)c1c(C(C)C)nn2ccccc12 [Ibudilast]
[3]
  Plate 2 (% conversion): 39.05%
[4]
  inhibition at 20 µM: -9.26%

## CCCCC1C(=O)N(c2ccccc2)N(c2ccccc2)C1=O [Phenylbutazone]
[5]
  % conversion: 37.63%
[6]
  inhibition at 20 µM: -3.41%

## CCCCc1ccc(C(=O)O)nc1 [Fusaric acid]
  Plate 2 (% conversion): 28.15%
[7]
  inhibition at 20 µM: 23.3%

## O=[N+]([O-])c1ccc(CSc2ncnc3c2ncn3[C@@H]2O[C@H](CO)[C@@H](O)[C@H]2O)cc1 [S-(4-Nitrobenzyl)-6-thioinosine]
[8]
  Plate 3 (% conversion): 36.51%

## Cl.c1ccc2c(c1)CCC[C@H]2Nc1nc2ccccc2[nH]1 [NS8593 hydrochloride]
[3]
  Plate 2 (% conversion): 39.37%
[9]
  Plate 2 (% inhibition): -10.19%

## Cn1ccnc1 [1-Methylimidazole]
  Plate 3 (% conversion): 20.25%

## CC(C)(C)c1ccc(C(O)CCCN2CCC(C(O)(c3ccccc3)c3ccccc3)CC2)cc1 (stereo not shown) [Terfenadine]
[5]
  % conversion: 45.15%
[6]
  inhibition at 20 µM: -25.4%

## C[C@H](Cc1ccc(OCC(=O)[O-])cc1)NC[C@H](O)c1cccc(Cl)c1.[Na+] [BRL 37344 sodium]
[1]
  Plate 1 (% inhibition): 4.03%
[2]
  Plate 1 (% conversion): 34.52%

## N#Cc1cc([N+](=O)[O-])c2sc(C(N)=O)[n+]([O-])c2c1 [BTO-1]
[1]
  Plate 1 (% inhibition): -2.18%
[2]
  Plate 1 (% conversion): 36.60%

## CC1CNc2c(cccc2S(=O)(=O)N[C@@H](CCCNC(=N)N)C(=O)N2CC[C@@H](C)C[C@@H]2C(=O)O)C1 (stereo partly shown) [Argatroban monohydrate]
[1]
  Plate 1 (% inhibition): -7.94%
[2]
  Plate 1 (% conversion): 38.54%

## CC(=O)c1c(O)c(C)c(O)c(Cc2c(O)c3c(c(C(=O)/C=C/c4ccccc4)c2O)OC(C)(C)C=C3)c1O [Rottlerin]
  % conversion: 14.64%
  inhibition at 20 µM: 64%

## O=C1CC[C@@]2(O)[C@H]3Cc4ccc(O)c5c4[C@@]2(CCN3CC2CC2)[C@H]1O5 [Naltrexone hydrochloride]
  Plate 3 (% conversion): 34.83%

## C[C@H](N)CN1CCc2ccc(Br)cc21.C[C@H](N)CN1CCc2ccc(Br)cc21.O=C(O)/C=C/C(=O)O [VER-3323 hemifumarate salt]
  Plate 3 (% conversion): 21.58%

## CNC(=O)c1cc2c(cn1)[nH]c1ccccc12 [N-Methyl-beta-carboline-3-carboxamide]
[3]
  Plate 2 (% conversion): 36.80%
[9]
  Plate 2 (% inhibition): -2.54%

## COc1cccc(-c2cc(=O)c3ccccc3o2)c1N [PD 98,059]
  % conversion: 28.37%

## Cn1cc(-c2[nH]c3cc(NC(=O)[C@H](N)C4CCCCC4)cc4c3c2C=NNC4=O)cn1 [PF-477736]
[10]
  Plate 5 (% inhibition): -92.31%
[11]
  Plate 5 (% conversion): 67.73%

## O=C1Nc2ccc(I)cc2/C1=C/c1cc(Br)c(O)c(Br)c1 [GW5074, reference compound]
  Inhibition at 20 µM [%]: 101.1%
pH 7.5
  IC50: 2.48 ± 0.14 µM

## CC(C)N(CCC(=O)c1ccc2ccccc2c1)Cc1ccccc1.Cl [ZM 39923 hydrochloride]
[8]
  Plate 3 (% conversion): 15.79%

## C[C@]12CC[C@@H]3c4ccc(O)cc4C[C@@H](CCCCCCCCC[S+]([O-])CCCC(F)(F)C(F)(F)F)[C@H]3[C@@H]1CC[C@@H]2O (stereo partly shown) [Fulvestrant]
[1]
  Plate 1 (% inhibition): 12.89%
[2]
  Plate 1 (% conversion): 31.54%

## C[C@H](N[C@@H](CCc1ccccc1)C(=O)O)C(=O)N1CCC[C@H]1C(=O)O.O.O [Enalaprilat dihydrate]
[5]
  % conversion: 37.37%

## CN1C(=O)CC[C@H]1c1cccnc1 [(-)-Cotinine]
  Plate 1 (% conversion): 36.85%
  Plate 1 (% inhibition): -2.91%

## Cc1cc([C@@H]2CCCN2C)on1.Cl [ABT-418 hydrochloride]
  Plate 1 (% conversion): 35.68%
  Plate 1 (% inhibition): 0.56%

## O=C(O)/C=C\C(=O)O.O=C(O)/C=C\C(=O)O.c1cc(CN2CCCCC2)cc(OCCCNc2nc3ccccc3s2)c1 [SKF 95282 dimaleate]
  % conversion: 24.14%

## C[C@]12CCC(=O)C=C1CC[C@@H]1[C@@H]2[C@@H](O)C[C@@]2(C)[C@H]1CC[C@]2(O)C(=O)CO [Hydrocortisone]
[3]
  Plate 2 (% conversion): 37.93%
[4]
  inhibition at 20 µM: -5.89%

## CNCC(O)c1ccc(O)c(O)c1.Cl (racemic) [(±)-Epinephrine hydrochloride]
[3]
  Plate 2 (% conversion): 6.18%
[9]
  Plate 2 (% inhibition): 88.94%

## N[C@@H](CCCC(=O)O)C(=O)O [L-2-aminoadipic acid]
[1]
  Plate 1 (% inhibition): -2.85%
[2]
  Plate 1 (% conversion): 36.83%

## CC(C)Oc1cccnc1N(C)C1CCN(Cc2ccccc2)CC1.O=C(O)/C=C\C(=O)O [U-101958 maleate]
[5]
  % conversion: 35.76%

## CN1CCC(c2c[nH]c3ccc(O)cc23)CC1.O=C(O)/C=C\C(=O)O [BRL 54443 maleate]
  Plate 1 (% conversion): 33.54%
  Plate 1 (% inhibition): 6.94%

## O=C(c1ccc(OCCN2CCCCC2)cc1)c1c(-c2ccc(O)cc2)sc2cc(O)ccc12 [Raloxifene hydrochloride]
[5]
  % conversion: 40.15%
[6]
  inhibition at 20 µM: -10.8%

## Cl.NCCc1ccc(O)cc1 [4-Hydroxyphenethylamine hydrochloride]
LOPAC Plate 4, compound at 20 uM
  % inhibition: -7.46%
[5]
  % conversion: 39.01%

## Cc1cccc(C)c1NC(=O)CN1CCCC1=O [Nefiracetam]
  Plate 2 (% conversion): 34.89%
[7]
  inhibition at 20 µM: 3.19%

## CC(C)(C)NCC(O)c1ccc(O)c(CO)c1.CC(C)(C)NCC(O)c1ccc(O)c(CO)c1.O=S(=O)(O)O (stereo not shown) [Albuterol hemisulfate]
[5]
  % conversion: 30.81%

## CCCn1c(=O)c2[nH]c(C3CCCC3)nc2n(CCC)c1=O [8-Cyclopentyl-1,3-dipropylxanthine]
  Plate 2 (% conversion): 38.65%
20 µM
  Plate 2 (% inhibition): -8.06%

## CN(C)CCC=C1c2ccccc2CCc2ccccc21 [Amitriptyline hydrochloride]
  Plate 1 (% conversion): 38.67%
[1]
  Plate 1 (% inhibition): -8.33%

## CCn1cc(C(=O)O)c(=O)c2cc(F)c(N3CCNC(C)C3)c(F)c21 (stereo not shown) [Lomefloxacin hydrochloride]
[8]
  Plate 3 (% conversion): 37.37%

## Cc1c(O)cccc1C(=O)N[C@@H](CSc1ccccc1)[C@H](O)CN1C[C@H]2CCCC[C@H]2C[C@H]1C(=O)NC(C)(C)C [Nelfinavir]
[10]
  Plate 5 (% inhibition): 38.58%
[11]
  Plate 5 (% conversion): 23.19%

## CCCCCN(C)CCC(O)(P(=O)([O-])O)P(=O)(O)O.[Na+] [Ibandronate sodium]
[5]
  % conversion: 30.05%

## C[N+](C)(C)CCOC(=O)CCC(=O)OCC[N+](C)(C)C [Succinylcholine chloride]
  % conversion: 39.43%
  inhibition at 20 µM: -8.69%

## CN(C)CCc1c[nH]c2ccc(Cn3cncn3)cc12.O=C(O)c1ccccc1 [Rizatriptan benzoate salt]
[8]
  Plate 3 (% conversion): 37.82%

## CN1CCN2c3ccccc3Cc3ccccc3C2C1 (stereo not shown) [Mianserin hydrochloride]
[8]
  Plate 3 (% conversion): 43.45%

## Nc1ccc(N2C(=O)c3ccccc3C2=O)c(Cl)c1 [N-(4-Amino-2-chlorophenyl)phthalimide]
[1]
  Plate 1 (% inhibition): -9.54%
[2]
  Plate 1 (% conversion): 39.07%

## C[C@@]12N[C@@H](Cc3ccccc31)c1ccccc12.O=C(O)/C=C\C(=O)O [(-)-MK-801 hydrogen maleate]
  Plate 3 (% conversion): 36.17%

## Oc1c2ccccc2c2c3c(cccc13)N=N2 [SP600125]
[3]
  Plate 2 (% conversion): 37.53%
[4]
  inhibition at 20 µM: -4.71%

## Maraviroc
  Plate 1 (% conversion): 50.71%
  Plate 1 (% inhibition): -44.18%
  Plate 5 (% conversion): 49.04%
  Plate 5 (% inhibition): -37.39%

## O=C(C1CCCCC1)N1CC(=O)N2CCc3ccccc3C2C1 (stereo not shown) [Praziquantel]
[8]
  Plate 3 (% conversion): 41.06%

## CN(C)c1nc(N(C)C)nc(N(C)C)n1 [Altretamine]
[1]
  Plate 1 (% inhibition): -0.35%
[2]
  Plate 1 (% conversion): 35.99%

## Oc1ccc2ccccc2c1SSc1c(O)ccc2ccccc12 [IPA-3, reference compound]
AspH activity, fixed compound concentration 20 μM, initial LOPAC screen, 0.5%v/v DMSO
  Inhibition at 20 µM [%]: 100.0%
[5]
  % conversion: 2.34%
